The term melting point denotes the temperature, or range, at which the solid turns liquid.

Here are results for seven compounds from patent US6753342B2, “2-(1h-indol-3-yl)-2-oxo-acetamides with antitumor activity” (Novuspharma S.p.A., priority 1999, dated 2004).

Values after ≈ are worked out from the molar mass of the structure shown.

The test system of data set [1] is MKN-45 (gastric carcinoma). As to the kind of experiment: Cytotoxicity, MTT assay, MKN-45 cells. The settings on record: human gastric carcinoma cells, 144 hours incubation, read-out: MKN-45 (IC50, μg/ml). Format: cell-based. Here is the method: (§1) The compounds according to the invention have been pharmacologically tested against four human tumor cell lines: HT 29 (colon carcinoma), PC 3 (prostate carcinoma), H 460M (lung carcinoma), MKN-45 (gastric carcinoma). Cells were incubated with the tested compound for 144 hours, then cytotoxicity was determined by using the MTT assay (Mosman, T. “Rapid Colorimetric Assay for Cellular Growth and Survival: Application to Proliferation and Cytotoxicity Assay”; J. Immunolog. Methods, (1983), 65, 66; Green, L. M., “Rapid Colorimetric Assay for Cell Viability; Application to the Quantitation of Cytotoxic and Growth Inhibitory Lymphokines”, J. Immunol. Methods, (1984),;70, 257-268).
(§2) The compounds according to the invention have been pharmacologically tested against four human tumour cell lines: HT 29 (colon carcinoma), PC 3 (prostate carcinoma), H 460M (lung carcinoma), MKN45 (gastric carcinoma). Cells were incubated with the tested compound for 144 hours, then cytotoxicity was determined by using the MTT assay (Mosman, T. “Rapid Colorimetric Assay for Cellular Growth and Survival: Application to Proliferation and Cytotoxicity Assay”; J. Immunolog. Methods, (1983), 65, 66; Green, L. M., “Rapid Colorimetric Assay for Cell Viability; Application to the Quantitation of Cytotoxic and Growth Inhibitory Lymphokines”, J. Immunol. Methods, (1984), 70, 257-268).
For orientation: Tetrazolium dyes change colour on reduction, which living cells bring about.

For data set [2], the system named is PC 3 (prostate carcinoma). As to the kind of experiment: Cytotoxicity, MTT assay, PC 3 cells. Type of data set: cell-based. To be noted: human prostate carcinoma cells, 144 hours incubation, read-out: PC3 (IC50, μg/ml). Here is the method:
as §1, §2

Data set [3] deals with H 460M (lung carcinoma). Kind of data set: Cytotoxicity, MTT assay, H 460M cells. Format: cell-based. The settings on record: human lung carcinoma cells, 144 hours incubation, read-out: H460M (IC50, μg/ml). The procedure: as §1, §2
The test system of data set [4] is HT 29 (colon carcinoma). Kind of data set: Cytotoxicity, MTT assay, HT 29 cells. Format: cell-based. The settings on record: human colon adenocarcinoma cells, 144 hours incubation, read-out: HT29 (IC50, μg/ml). The procedure: as §1, §2

`NCCNC(=O)c1cccc2c1c(C(=O)C(=O)NC1=CC(=O)OC1)cn2Cc1ccc(Cl)cc1` came in with a melting point of 190 to 196 °C.

As to `O=C1C=C(NC(=O)C(=O)c2cn(Cc3ccc(Cl)cc3)c3cc(Cl)ccc23)CO1` [Example 4], the IC50 in data set [1] was 0.12 µg/mL (≈ 0.28 µM); in data set [2] it was 0.3 µg/mL (≈ 0.699 µM); in data set [3], 0.049 µg/mL (≈ 0.114 µM); in data set [4], 0.1 µg/mL (≈ 0.233 µM).

In turn, `O=C1C=C(NC(=O)C(=O)c2cn(Cc3ccc(Cl)cc3)c3ccccc23)CO1` [Example 2, N-(5-oxo-2,5-dihydrofuran-3-yl)-2-(1-(4-chlorobenzyl)-1H-indol-3-yl)-2-oxo-acetamide] had a melting point of 253 to 255 °C. For the same compound, the IC50 in data set [1] stood at 0.048 µg/mL (≈ 0.122 µM). Besides, the IC50 in data set [2] is 0.22 µg/mL (≈ 0.557 µM). The IC50 in data set [3] is 0.011 µg/mL (≈ 0.0279 µM). For the same compound, the IC50 in data set [4] was found to be 0.13 µg/mL (≈ 0.329 µM).

On to `CN(C)CCNC(=O)c1cccc2c1c(C(=O)C(=O)NC1=CC(=O)OC1)cn2Cc1ccc(Cl)cc1`, for which the melting point lay within 225 to 227 °C.

Compound `O=C1C=C(NC(=O)C(=O)c2cn(Cc3ccc(Cl)cc3)c3ccccc23)CS1` showed a melting point of 268 to 270 °C.

For the compound `O=C1C=C(NC(=O)C(=O)c2cn(Cc3ccc(Cl)cc3)c3cccc(CO)c23)CO1`, the melting point fell in the range of 238 to 240 °C.

As for `O=C1C=C(NC(=O)C(=O)c2cn(Cc3ccc(F)cc3)c3ccccc23)CO1` [Example 3, N-(5-oxo-2,5-dihydrofuran-3-yl)-2-(1-(4-fluorobenzyl)-1H-indol-3-yl)-2-oxo-acetamide], the melting point fell in the range of 260 to 262 °C. Further, the IC50 in data set [1] is 0.088 µg/mL (≈ 0.233 µM). Also, in data set [2], the IC50 worked out at 0.035 µg/mL (≈ 0.0925 µM). Besides, the IC50 in data set [3] came to 0.012 µg/mL (≈ 0.0317 µM). Also, the IC50 in data set [4] was found to be 0.0004 µg/mL (≈ 0.00106 µM).
